Experimental data as given in article PMC11268479, “Delineation of the complete reaction cycle of a natural Diels–Alderase” (Chemical Science, 2024).
Values joined by “and” are separate entries in the source; they are usually repeats but may differ in a detail not shown here. Equal entries are not always repeated. Where two headings read alike, the source gives them in different places.

Tests used:
AbyU [1] = biological target: T1, AbyU (Micromonospora maris, UniProt Z9P124SIT8, F95Y, form not given); experiment: Single turnover stopped-flow kinetics of the AbyU catalysed conversion of 5 to 6 (excess enzyme, absorbance 325 nm); assay type: biochemical, Micromonospora maris AB-18-032
T1 sequence (Z9P124SIT8 1-160 F95Y): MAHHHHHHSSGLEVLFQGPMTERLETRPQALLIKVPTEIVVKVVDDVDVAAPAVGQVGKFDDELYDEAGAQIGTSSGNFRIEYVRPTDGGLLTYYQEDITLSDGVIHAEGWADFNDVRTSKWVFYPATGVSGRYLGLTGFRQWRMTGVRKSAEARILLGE
Description: (§1) To further investigate the AbyU catalysed reaction stopped-flow kinetic studies were undertaken employing substrate 5. […] This feature is lost upon cyclisation and thus constitutes a viable spectrophotometric probe to monitor the AbyU catalysed conversion of substrate 5 to product 6 (Fig. 1b). […] We assessed the quality of the fit from the plotted residuals.
(§2) As the concentration of 5 increases, a concomitant decrease in the rate constants kobs1 and kobs2 is observed. […] These different conformational populations cannot be individually resolved using ensemble kinetic measurements unless their rate constants differ by at least an order of magnitude, therefore, the observed rate constant reflects average behaviour. The relative equilibrium saturation constants observed for two different binding conformations can be obtained by examining the dependence of kobs2 on (Fig. 3b). From Fig. 3b, the data present as apparent substrate inhibition. In this case, we can envisage that the ‘slow’ reacting species effectively acts as a weak inhibitor relative to the ‘fast’ reacting species, thus presenting as apparent substrate inhibition.
(§3) It should be noted that the species reflected by the third exponential phase has a larger equilibrium constant than the faster reacting species, with a rate of reaction approximately 20-fold slower than the steady-state rate of the enzyme (Fig. S6 ^†). As it represents an insignificant component of the steady-state reaction, we have not analysed this phase any further.
(§4) Stopped-Flow (SF) experiments were performed using a Hi-Tech Scientific KinetAsyst Stopped-Flow System spectrophotometer (TgK Scientific, Bradford on Avon, UK). Both syringe 1 and 2 were washed with ddH2O and SF buffer (18 mM Tris–HCl, 135 mM NaCl, 10% acetonitrile, pH 7.5). 10% acetonitrile was maintained in both syringes at all times to ensure solubility of the substrate. The stop-flow was zeroed and references were taken using SF buffer in each syringe for burst phase kinetics. Purified recombinant AbyU in SEC buffer (20 mM Tris–HCl, 150 mM NaCl, pH 7.5), was diluted to a final concentration of 800 μM AbyU in SF buffer. This solution of AbyU was placed in syringe 1 to obtain references for the single turnover experiments. For the multiple turnover experiments, AbyU was added to syringe 1 at a concentration of 2 μM (diluted in SF buffer). Likewise, substrate 5 was diluted in SF buffer to double the reaction concentration and placed in syringe 2. 50 μL from each syringe was injected into the mixing chamber and measurement immediately commenced. Reactions were observed using a logarithmic timebase over either 1000 s or 10 s. For the 1000 s experiments, the timeframe was split into 15 cycles, each with 200 points, each of which was distributed in a logarithmic manner. This ensured a high number of readings in the first seconds of the experiment. […] This was compounded by the weak affinity of substrate 5 for the plastic components in the SF system, rendering it impossible to precisely replicate the concentration of 5 in the reaction chamber over multiple syringes. To measure the uncatalysed rate of substrate cyclisation, the stop flow was zeroed and references were taken using SF buffer in both syringes. Varying concentrations of substrate 5 were added to syringe 2 and measurements were taken using a linear time base over 10 seconds. All reactions were performed at 20 °C.
(§5) Results were fitted using Graphpad Prism. […]

[2] = biological target: AbyU (Micromonospora maris); experiment: as above; assay type: biochemical, Micromonospora maris AB-18-032; details: single turnover, 10 s, 20 °C, pH 7.5, 10% acetonitrile, eqn (2); read-out: Ki from substrate inhibition fit of kobs2 vs [5] (binding affinity for slower reacting species)
Chain of AbyU (Micromonospora maris) (Z9P124SIT8 1-160 F95Y): as above
Description: as §1, §2, §3, §4, §5

AbyU [3] = biological target: T1, AbyU; experiment: Steady-state kinetics of the AbyU catalysed conversion of 5 to 6 (Michaelis–Menten fit); assay type: biochemical, Micromonospora maris AB-18-032
Procedure: Fig. 5 Burst phase characterisation of the AbyU catalysed conversion of 5 to 6. (a) Example of the transient observed (blue) in the reaction of 54 μM 5 with 1 μM AbyU, shown on a logarithmic scale with a linear scale shown inset for comparison. The transient is fitted to eqn (3) (black line, see Fig. S9 ^† for fitting analysis). (b) The rate of turnover in each burst phase as a function of the concentration of 5. Data for kburst1 is fitted to a one-step binding model (eqn (4)) and kburst2 is fitted to a two-step binding model (eqn (5)). (c) Steady-state kinetics fitted to the Michaelis–Menten equation (eqn (S1) ^†). […] This is perhaps unsurprising, as the conformationally constricted product must by necessity dissociate from the ‘closed’ active site. Steady-state kinetics reveal the impact that product release has upon the overall rate. […] Stopped-Flow (SF) experiments were performed using a Hi-Tech Scientific KinetAsyst Stopped-Flow System spectrophotometer (TgK Scientific, Bradford on Avon, UK). […] This ensured a high number of readings in the first seconds of the experiment. […] The amplitude of the change in absorbance was converted to concentration using the following measured absorbance coefficient for substrate 5: ε325 nm = 13 200 M^−1 cm^−1 and the following measured absorbance coefficient for product 6: ε325 nm = 1085 M^−1 cm^−1. […]

AbyU [4] = biological target: T1, AbyU; experiment: Multiple turnover (burst phase) stopped-flow kinetics of the AbyU catalysed conversion of 5 to 6; assay type: biochemical, Micromonospora maris AB-18-032
Procedure: To formally identify the rate-limiting step in the AbyU catalysed cycloaddition reaction, a multiple turnover kinetics experiment was undertaken. The stopped-flow transients (Fig. 5a) reveal two distinguishable burst phases when fitted to eqn (3), a derivative of eqn (1), which incorporates a linear phase to account for multiple turnovers in the steady-state.3 [drawing 3]
When the data for kburst1 are fitted to eqn (4), kon and koff can be determined to be 0.88 ± 0.03 μM^−1 s^−1 and 3.4 ± 0.71 s^−1, for substrate binding and dissociation respectively, in this conformation.4 kburst1 = kburst1on[S] + kburst1off
The relationship between the slower burst phase, kburst2 and substrate concentration, in contrast, fits well to, and is highly representative of, a two-step binding interaction (eqn (5) (ref. [32])).5 kburst2 = 1/2(p − q)where:5.1 p = kburst2on1 × [S] + kburst2off1 + kburst2on2 + kburst2off25.2 [drawing 4] 5.3 r = kburst2on1 × [S] × kburst2on2 + kburst2off1 × kburst2off2 + kburst2on1 × [S] × kburst2off2
as §4
Results were fitted using Graphpad Prism. Data obtained before 2 ms was discarded, reflecting the dead-time of the instrument. Data were fit to equations as outlined in the text. The 10 s single turnover kinetic data were fitted to two exponentials with a sloping baseline (eqn (3)). […] To circumvent this, the data between 3 s and 10 s were separately fitted to a straight line to determine the initial rate of k3. In order to fully analyse the change in the reaction rate with respect to the concentration of 5, 3–6 transients at each substrate concentration were taken and the rate and amplitude parameters derived from the fit appropriate for each transient (Fig. S4 and S9 ^†). The background rate of reaction (Fig. S11 ^†) was removed from the steady-state reaction and from the linear portion of k3. The other exponential phases occur too rapidly for the background rate of reaction to have an appreciable influence on the data. […]

[5] = Uncatalysed (spontaneous) cyclisation of substrate 5, stopped-flow; assay type: physicochemical; details: SF buffer, no enzyme, 10 s, 20 °C, pH 7.5, 10% acetonitrile
Procedure: Stopped-Flow (SF) experiments were performed using a Hi-Tech Scientific KinetAsyst Stopped-Flow System spectrophotometer (TgK Scientific, Bradford on Avon, UK). Both syringe 1 and 2 were washed with ddH2O and SF buffer (18 mM Tris–HCl, 135 mM NaCl, 10% acetonitrile, pH 7.5). 10% acetonitrile was maintained in both syringes at all times to ensure solubility of the substrate. The stop-flow was zeroed and references were taken using SF buffer in each syringe for burst phase kinetics. Purified recombinant AbyU in SEC buffer (20 mM Tris–HCl, 150 mM NaCl, pH 7.5), was diluted to a final concentration of 800 μM AbyU in SF buffer. […] This ensured a high number of readings in the first seconds of the experiment. […]
Results were fitted using Graphpad Prism. […] The amplitude of the change in absorbance was converted to concentration using the following measured absorbance coefficient for substrate 5: ε325 nm = 13 200 M^−1 cm^−1 and the following measured absorbance coefficient for product 6: ε325 nm = 1085 M^−1 cm^−1. […] Initial concentrations of substrate 5 were calculated from the absorbance at t = 0, to account for uncatalysed substrate turnover, and the tendency of the substrate to have a weak affinity with the plastic present in the stop-flow apparatus. […] The slope of the line was determined for each substrate concentration and averaged over 3–5 repeats.

[6] = burst phase 1, eqn (4), 20 °C, pH 7.5
[7] = burst phase 2, two-step binding, eqn (5), 20 °C, pH 7.5

k3 (AbyU [1]; binding in ES3 conformation (third phase), 20 °C, pH 7.5): ≈5.7 × 10^−4 ± 3.8 × 10^−5 μM^−1 s^−1 | k−3 (AbyU [1]; dissociation from ES3 conformation (third phase), 20 °C, pH 7.5): ≈6.9 × 10^−3 ± 1.9 × 10^−3 s^−1 | rate of third exponential phase slower than the steady-state rate of the enzyme (AbyU [1]; ratio): approximately 20 fold | Km (AbyU [1]; single turnover, 10 s, 20 °C, pH 7.5, 10% acetonitrile, eqn (2), read-out: Km from substrate inhibition fit of kobs2 vs [5] (approximation of binding affinity for faster-reacting conformation(s))): 13.2 ± 3.2 µM | Ki [2]: 54.9 ± 14.5 µM | kcat slower than the initial rate of kburst1 (AbyU [3]; ratio): around 230 times | kcat (AbyU [3]; steady-state, 20 °C, pH 7.5, 10% acetonitrile): 0.116 ± 0.005 s⁻¹ | k5 (cyclisation once substrate is bound) (AbyU [4]; 20 °C, pH 7.5): N.D. (very quick) | Kd (AbyU [4]; apparent binding constant, two-step route, read-out: Kapp = K2 × K4): 1.3 µM | Kd (AbyU [4]; binding constant, ES2 conformation, read-out: K2 = k−2/k2): 1.97 ± 4.24 µM | Kd (AbyU [4]; binding constant, ES conformation, read-out: K1 = k−1/k1): 3.86 ± 0.94 µM | k1 (kon, kburst1, substrate binding, one-step) (AbyU [4]; [6]): 880000 ± 30000 M⁻¹ s⁻¹ | k−1 (koff, kburst1, substrate dissociation) (AbyU [4]; [6]): 3.4 ± 0.71 s⁻¹ and 3.41 ± 0.71 s⁻¹ | k2 (on rate, kburst2, sub-optimal conformation) (AbyU [4]; [7]): 360000 ± 460000 M⁻¹ s⁻¹ | k4 (rearrangement within active site to most productive conformation) (AbyU [4]; [7]): 1.37 ± 2.38 s⁻¹ | k−2 (off rate, kburst2, sub-optimal conformation) (AbyU [4]; [7]): 0.71 ± 0.62 s⁻¹ | k−4 (AbyU [4]; burst phase 2, two-step binding, reverse rearrangement, 20 °C, pH 7.5): 0.90 ± 2.29 s⁻¹ | K4 (k−4/k4) (AbyU [4]; equilibrium constant of rearrangement): 0.66 ± 2.81 | kspont (spontaneous cyclisation of 5) [5]: 1250 ± 17 M⁻¹ s⁻¹
SMILES: C=C1OC(=O)C(C(=O)[C@H](C)C[C@H](C)C(=O)/C=C/C=C/C=C/C)=C1OC [compound 5]
